Measured values published in US4544658A, “1-Cyclopropyl-6-fluoro-1,4-dih ydro-4-oxo-7-(alkyl-1-piperazinyl)quinoline-3-carboxylic acids, processes for their preparation and antibacterial agents containing them” (Bayer Aktiengesellschaft, priority 1982, dated 1985).
In brackets after ≈: the same amount, converted by molar mass.

Key:
Assay in all cases: MIC, agar dilution test; Denley multipoint inoculation procedure
Type in all cases: cell-based
Staphylococcus 1756 = settings: read-out: Minimum inhibitory concentration (MIC)
E. coli Neumann = settings: Escherichia coli, read-out: Minimum inhibitory concentration (MIC)
Serratia 16040 = settings: read-out: Minimum inhibitory concentration (MIC)
Staphylococcus Fk422 = settings: read-out: Minimum inhibitory concentration (MIC)
Providencia 12052 = settings: read-out: Minimum inhibitory concentration (MIC)
Klebsiella 8085 = settings: read-out: Minimum inhibitory concentration (MIC)
Klebsiella 6179 = settings: read-out: Minimum inhibitory concentration (MIC)
Klebsiella 57 USA = settings: read-out: Minimum inhibitory concentration (MIC)
Staphylococcus 133 = settings: read-out: Minimum inhibitory concentration (MIC)

Compound | MIC (Staphylococcus 1756) | MIC (E. coli Neumann) | MIC (Serratia 16040) | MIC (Staphylococcus Fk422) | MIC (Providencia 12052) | MIC (Klebsiella 8085) | MIC (Klebsiella 6179) | MIC (Klebsiella 57 USA) | MIC (Staphylococcus 133)
CC1CN(c2cc3c(cc2F)c(=O)c(C(=O)O)cn3C2CC2)CCN1 (stereo not drawn) [Example 1, 1-cyclopropyl-6-fluoro-1,4-dihydro-4-oxo-7-(3-methyl-1-piperazinyl)quinoline-3-carboxylicacid semihydrate] | 0.25 µg/mL | ≤ 0.015 µg/mL | 4 µg/mL | 0.25 µg/mL | 16 µg/mL | ≤ 0.015 µg/mL | 0.125 µg/mL | 0.03 µg/mL | 0.25 µg/mL
C[C@@H]1CN(c2cc3c(cc2F)c(=O)c(C(=O)O)cn3C2CC2)C[C@H](C)N1 [Example 3, 1-cyclopropyl-6-fluoro-1,4-dihydro-4-oxo-7-(3,5-dimethyl-1-piperazinyl)quinoline-3-carboxylic acid] | 0.25 µg/mL (≈ 0.696 µM) | ≤ 0.015 µg/mL | 16 µg/mL (≈ 44.5 µM) | 0.5 µg/mL (≈ 1.39 µM) | 16 µg/mL (≈ 44.5 µM) | ≤ 0.015 µg/mL | 0.25 µg/mL (≈ 0.696 µM) | 0.125 µg/mL (≈ 0.348 µM) | 0.25 µg/mL (≈ 0.696 µM)
CCN1CCN(c2cc3c(cc2F)c(=O)c(C(=O)O)cn3C2CC2)CC1C.I.O (stereo not drawn) [Example 4, 1-cyclopropyl-6-fluoro-1,4-dihydro-4-oxo-7-(4-ethyl-3-methyl-1-piperazinyl)quinoline-3-carboxylic acid hydriodide monohydrate] | 0.5 µg/mL | 0.03 µg/mL | 16 µg/mL | 0.5 µg/mL | 32 µg/mL | ≤ 0.015 µg/mL | 0.25 µg/mL | 0.25 µg/mL | 0.25 µg/mL
CCN1[C@H](C)CN(c2cc3c(cc2F)c(=O)c(C(=O)O)cn3C2CC2)C[C@@H]1C [Example 5, 1-cyclopropyl-6-fluoro-1,4-dihydro-4-oxo-7-(4-ethyl-3,5-dimethyl-1-piperazinyl)quinoline-3-carboxylic acid hydriodide] | 0.5 µg/mL (≈ 1.29 µM) | 0.03 µg/mL (≈ 0.0774 µM) | 32 µg/mL (≈ 82.6 µM) | 0.5 µg/mL (≈ 1.29 µM) | 32 µg/mL (≈ 82.6 µM) | 0.03 µg/mL (≈ 0.0774 µM) | 0.5 µg/mL (≈ 1.29 µM) | 0.5 µg/mL (≈ 1.29 µM) | 0.5 µg/mL (≈ 1.29 µM)
